According to patent US7064120B2, “Tricyclic pyridyl carboxamides and derivatives thereof tocolytic oxytocin receptor antagonists” (Wyeth, priority 2001, dated 2006):

molecular target: T1, human vasopressin V1a receptor subtype (Homo sapiens, UniProt P37288); assay: Vasopressin binding in CHO cell membranes expressing human vasopressin V1a subtype receptors ([3H]Manning ligand radioligand binding); details: 100 nM
T1 construct: host or cells: CHO cells, stably transfected (pZeoSV vector for the Thibonnier line)
T1 sequence (P37288 whole entry): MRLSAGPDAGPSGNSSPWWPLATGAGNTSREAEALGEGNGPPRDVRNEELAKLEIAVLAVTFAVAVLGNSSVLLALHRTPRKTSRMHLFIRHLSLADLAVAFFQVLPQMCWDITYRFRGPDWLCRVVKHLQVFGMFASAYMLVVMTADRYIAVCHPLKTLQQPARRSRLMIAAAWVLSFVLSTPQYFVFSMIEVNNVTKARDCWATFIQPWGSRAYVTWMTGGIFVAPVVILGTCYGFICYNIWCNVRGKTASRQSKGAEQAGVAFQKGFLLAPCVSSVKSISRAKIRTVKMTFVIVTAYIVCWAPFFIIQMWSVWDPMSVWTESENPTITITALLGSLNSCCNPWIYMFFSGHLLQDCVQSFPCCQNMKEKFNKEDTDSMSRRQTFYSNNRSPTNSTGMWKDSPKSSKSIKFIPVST
Method in brief: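 Radioligand displacement: [3H]Manning ligand, added as 8 nM stock, binds human V1a receptor in CHO-cell membranes (25–50 μg/well), pH 7.4 Tris buffer with protease inhibitors, 60 min room temperature. Bound counts collected by filter harvesting; values are percent inhibition at stated concentration or nanomolar IC50.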

| Structure (SMILES) | inhibition at 0.1 µM [%] |
| --- | --- |
| COc1ccccc1-c1ccc(C(=O)N2Cc3ccc(C(=O)NCc4ccncc4)n3Cc3ccccc32)cc1C [Example 88, 10-[(2′-Methoxy-2-methyl-[1,1′-biphenyl]-4-yl)carbonyl]-N-(4-pyridinylmethyl)-10,11-dihydro-5H-pyrrolo[2,1-c][1,4]benzodiazepine-3-carboxamide] | 8 |
| Cc1ccccc1-c1ccc(C(=O)N2Cc3ccc(C(=O)NCc4ccncc4)n3Cc3ccccc32)cc1C [Example 89, 10-[(2,2′-Dimethyl-[1,1′-biphenyl]-4-yl)carbonyl]-N-(4-pyridinylmethyl)-10,11-dihydro-5H-pyrrolo[2,1-c][1,4]benzodiazepine-3-carboxamide] | 29 |
| COc1cccc(-c2ccc(C(=O)N3Cc4ccc(C(=O)NCc5ccncc5)n4Cc4ccccc43)cc2C)c1 [Example 90, 10-[(3′-Methoxy-2-methyl-[1,1′-biphenyl]-4-yl)carbonyl]-N-(4-pyridinylmethyl)-10,11-dihydro-5H-pyrrolo[2,1-c][1,4]benzodiazepine-3-carboxamide] | 14 |
| COc1ccccc1-c1ccc(C(=O)N2Cc3ccc(C(=O)NCc4ccncc4)n3Cc3ccccc32)cc1 [Example 91, 10-[(2′-Methoxy-[1,1′-biphenyl]-4-yl)carbonyl]-N-(4-pyridinylmethyl)-10,11-dihydro-5H-pyrrolo[2,1-c][1,4]benzodiazepine-3-carboxamide] | 11 |
| Cc1ccccc1-c1ccc(C(=O)N2Cc3ccc(C(=O)NCc4ccncc4)n3Cc3ccccc32)cc1 [Example 92, 10-[(2′-Methyl-[1,1′-biphenyl]-4-yl)carbonyl]-N-(4-pyridinylmethyl)-10,11-dihydro-5H-pyrrolo[2,1-c][1,4]benzodiazepine-3-carboxamide] | 21 |
| COc1cc(C(=O)N2Cc3ccc(C(=O)NCc4ccncc4)n3Cc3ccccc32)ccc1-c1ccccc1C [Example 93, 10-[(2-Methoxy-2′-methyl-[1,1′-biphenyl]-4-yl)carbonyl]-N-(4-pyridinylmethyl)-10,11-dihydro-5H-pyrrolo[2,1-c][1,4]benzodiazepine-3-carboxamide] | 50 |
| COc1cc(-c2ccccc2C)c(Cl)cc1C(=O)N1Cc2ccc(C(=O)NCc3ccncc3)n2Cc2ccccc21 [Example 94, 10-[(6-Chloro-3-methoxy-2′-methyl-[1,1′-biphenyl]-4-yl)carbonyl]-N-(4-pyridinylmethyl)-10,11-dihydro-5H-pyrrolo[2,1-c][1,4]benzodiazepine-3-carboxamide] | 0 |
| COc1cccc(-c2cc(OC)c(C(=O)N3Cc4ccc(C(=O)NCc5ccncc5)n4Cc4ccccc43)cc2Cl)c1 [Example 95, 10-[(6-Chloro-3,3′-dimethoxy-[1,1′-biphenyl]-4-yl)carbonyl]-N-(4-pyridinylmethyl)-10,11-dihydro-5H-pyrrolo[2,1-c][1,4]benzodiazepine-3-carboxamide] | 1 |
| COc1cc(C(=O)N2Cc3ccc(C(=O)NCc4ccncc4)n3Cc3ccccc32)ccc1-c1cccc2ccccc12 [Example 96, 10-[3-Methoxy-4-(naphthalen-1-yl)benzoyl]-N-(4-pyridinylmethyl)-10,11-dihydro-5H-pyrrolo[2,1-c][1,4]benzodiazepine-3-carboxamide] | 7 |
| COc1ccccc1-c1ccc(C(=O)N2Cc3ccc(C(=O)NCc4ccncc4)n3Cc3ccccc32)cc1OC [Example 97, 10-[(2,2′-Dimethoxy-[1,1′-biphenyl]-4-yl)carbonyl]-N-(4-pyridinylmethyl)-10,11-dihydro-5H-pyrrolo[2,1-c][1,4]benzodiazepine-3-carboxamide] | 4 |
| O=C(NCc1ccncc1)c1ccc2n1Cc1ccccc1N(C(=O)c1ccc(-c3cccc4ccccc34)cc1Cl)C2 [Example 99, 10-[2-Chloro-4-(naphthalen-1-yl)benzoyl]-N-(4-pyridinylmethyl)-10,11-dihydro-5H-pyrrolo[2,1-c][1,4]benzodiazepine-3-carboxamide] | -7 |
| Cc1cc(C(=O)N2Cc3ccc(C(=O)NCc4ccncc4)n3Cc3ccccc32)ccc1-c1ccccc1C(F)(F)F [Example 100, 10-{[2-Methyl-2′-trifluoromethyl-[1,1′-biphenyl]-4-yl]carbonyl}-N-(4-pyridinylmethyl)-10,11-dihydro-5H-pyrrolo[2,1-c][1,4]benzodiazepine-3-carboxamide] | 10 |
| COc1ccccc1-c1ccc(C(=O)N2Cc3ccc(C(=O)N(C)Cc4cccnc4)n3Cc3ccccc32)cc1 [Example 104, 10-[(2′-Methoxy-[1,1′-biphenyl]-4-yl)carbonyl]-N-methyl-N-(3-pyridinylmethyl)-10,11-dihydro-5H-pyrrolo[2,1-c][1,4]benzodiazepine-3-carboxamide] | 32 |
| Cc1ccccc1-c1ccc(C(=O)N2Cc3ccc(C(=O)N(C)Cc4cccnc4)n3Cc3ccccc32)cc1 [Example 105, N-Methyl-10-[(2′-methyl-[1,1′-biphenyl]-4-yl)carbonyl]-N-(3-pyridinylmethyl)-10,11-dihydro-5H-pyrrolo[2,1-c][1,4]benzodiazepine-3-carboxamide] | 0 |

same assay, conditions: value in parentheses

| Structure (SMILES) | IC50 [nM] |
| --- | --- |
| COc1cc(-c2ccccc2C(F)(F)F)c(Cl)cc1C(=O)N1Cc2ccc(C(=O)N(C)Cc3cccnc3)n2Cc2ccccc21 [Example 5, 10-{[6-Chloro-3-methoxy-2′-trifluoromethyl-[1,1′-biphenyl]-4-yl]carbonyl}-N-methyl-N-(pyridin-3-ylmethyl)-10,11-dihydro-5H-pyrrolo[2,1-c][1,4]benzodiazepine-3-carboxamide] | > 3000 |
| COc1cc(-c2ccccc2Cl)c(Cl)cc1C(=O)N1Cc2ccc(C(=O)N(C)Cc3cccnc3)n2Cc2ccccc21 [Example 6, 10-[(2′,6-Dichloro-3-methoxy-[1,1′-biphenyl]-4-yl)carbonyl]-N-methyl-N-(pyridin-3-ylmethyl)-10,11-dihydro-5H-pyrrolo[2,1-c][1,4]benzodiazepine-3-carboxamide] | 928 |
| COc1cc(C(=O)N2Cc3ccc(C(=O)N(C)Cc4ccc[n+]([O-])c4)n3Cc3ccccc32)ccc1-c1ccccc1C(F)(F)F [Example 8, 10-{[2-Methoxy-2′-trifluoromethyl-[1,1′-biphenyl]-4-yl]carbonyl}-N-methyl-N-(1-oxo-pyridin-3-ylmethyl)-10,11-dihydro-5H-pyrrolo[2,1-c][1,4]benzodiazepine-3-carboxamide] | 801 |
| COc1ccccc1-c1ccc(C(=O)N2Cc3ccc(C(=O)N(C)Cc4cccnc4)n3Cc3ccccc32)cc1C [Example 101, 10-[(2′-Methoxy-2-methyl-[1,1′-biphenyl]-4-yl)carbonyl]-N-methyl-N-(3-pyridinylmethyl)-10,11-dihydro-5H-pyrrolo[2,1-c][1,4]benzodiazepine-3-carboxamide] | 355 |
| COc1cccc(-c2ccc(C(=O)N3Cc4ccc(C(=O)N(C)Cc5cccnc5)n4Cc4ccccc43)cc2C)c1 [Example 102, 10-[(3′-Methoxy-2-methyl-[1,1′-biphenyl]4-yl)carbonyl]-N-methyl-N-(3-pyridinyImethyl)-10,11-dihydro-5H-pyrrolo[2,1-c][1,4]benzodiazepine-3-carboxamide] | 275 |
| COc1ccccc1-c1ccc(C(=O)N2Cc3ccc(C(=O)N(C)Cc4cccnc4)n3Cc3ccccc32)cc1OC [Example 103, 10-[(2,2′-Dimethoxy-[1,1′-biphenyl]-4-yl)carbonyl]-N-methyl-N-(3-pyridinylmethyl)-10,11-dihydro-5H-pyrrolo[2,1-c][1,4]benzodiazepine-3-carboxamide] | 449 |
| Cc1cc(C(=O)N2Cc3ccc(C(=O)N(C)Cc4cccnc4)n3Cc3ccccc32)ccc1-c1ccccc1C(F)(F)F [Example 112, N-Methyl-10-{[2-methyl-2′-trifluoromethyl-[1,1′-biphenyl]-4-yl]carbonyl}-N-(3-pyridinylmethyl)-10,11-dihydro-5H-pyrrolo[2,1-c][1,4]benzodiazepine-3-carboxamide] | 1600 |
| COc1ccccc1-c1ccc(C(=O)N2Cc3ccc(C(=O)N4CCN(c5ccncc5)CC4)n3Cc3ccccc32)cc1C [Example 113, {10-[(2′-Methoxy-2-methyl-[1,1′-biphenyl]-4-yl)carbonyl]-10,11-dihydro-5H-pyrrolo[2,1-c][1,4]benzodiazepin-3-yl}[4-(4-pyridinyl)-1-piperazinyl]methanone] | 365 |

tested on: not given; assay: not given; details: not given

| Structure (SMILES) | melting point |
| --- | --- |
| COc1cc(-c2ccccc2C(F)(F)F)c(Cl)cc1C(=O)N1Cc2ccc(C(=O)N(C)Cc3cccnc3)n2Cc2ccccc21 [Example 5, 10-{[6-Chloro-3-methoxy-2′-trifluoromethyl-[1,1′-biphenyl]-4-yl]carbonyl}-N-methyl-N-(pyridin-3-ylmethyl)-10,11-dihydro-5H-pyrrolo[2,1-c][1,4]benzodiazepine-3-carboxamide] | 124 to 126 °C |
| COc1cc(-c2ccccc2Cl)c(Cl)cc1C(=O)N1Cc2ccc(C(=O)N(C)Cc3cccnc3)n2Cc2ccccc21 [Example 6, 10-[(2′,6-Dichloro-3-methoxy-[1,1′-biphenyl]-4-yl)carbonyl]-N-methyl-N-(pyridin-3-ylmethyl)-10,11-dihydro-5H-pyrrolo[2,1-c][1,4]benzodiazepine-3-carboxamide] | 196 to 198 °C |
| COc1cc(C(=O)N2Cc3ccc(C(=O)N(C)Cc4ccc[n+]([O-])c4)n3Cc3ccccc32)ccc1-c1ccccc1C(F)(F)F [Example 8, 10-{[2-Methoxy-2′-trifluoromethyl-[1,1′-biphenyl]-4-yl]carbonyl}-N-methyl-N-(1-oxo-pyridin-3-ylmethyl)-10,11-dihydro-5H-pyrrolo[2,1-c][1,4]benzodiazepine-3-carboxamide] | 165 to 170 °C (dec.) |
